These results are taken from paper PMC4774911, “Biochemical Screening of Five Protein Kinases from Plasmodium falciparum against 14,000 Cell-Active Compounds” (PLoS ONE, 2016).

Common to all, as to experiment: biochemical
What all share (design): endogenous in cells; host or cells: K562 cell extract; species or system K562 (extract); replicate k of n = 2 (each experiment ID is one independent experiment; two experiment IDs per compound)
Common to all, as to conditions: read-out: KDapp

Assay [1] has as its target BMP2K (Homo sapiens, UniProt Q9NSY1).
Assay [2] has as its target BTK (Homo sapiens, UniProt Q06187).
Assay [3] deals with CAMK2G (Homo sapiens, UniProt Q13555).
Assay [4] concerns the target CDK6 (Homo sapiens, UniProt Q00534).
The target of assay [5] is MAP3K1 (Homo sapiens, UniProt Q13233).
For assay [6], the target named is T1, MAP3K6 (Homo sapiens, UniProt O95382).
T1 sequence (O95382 1-1288): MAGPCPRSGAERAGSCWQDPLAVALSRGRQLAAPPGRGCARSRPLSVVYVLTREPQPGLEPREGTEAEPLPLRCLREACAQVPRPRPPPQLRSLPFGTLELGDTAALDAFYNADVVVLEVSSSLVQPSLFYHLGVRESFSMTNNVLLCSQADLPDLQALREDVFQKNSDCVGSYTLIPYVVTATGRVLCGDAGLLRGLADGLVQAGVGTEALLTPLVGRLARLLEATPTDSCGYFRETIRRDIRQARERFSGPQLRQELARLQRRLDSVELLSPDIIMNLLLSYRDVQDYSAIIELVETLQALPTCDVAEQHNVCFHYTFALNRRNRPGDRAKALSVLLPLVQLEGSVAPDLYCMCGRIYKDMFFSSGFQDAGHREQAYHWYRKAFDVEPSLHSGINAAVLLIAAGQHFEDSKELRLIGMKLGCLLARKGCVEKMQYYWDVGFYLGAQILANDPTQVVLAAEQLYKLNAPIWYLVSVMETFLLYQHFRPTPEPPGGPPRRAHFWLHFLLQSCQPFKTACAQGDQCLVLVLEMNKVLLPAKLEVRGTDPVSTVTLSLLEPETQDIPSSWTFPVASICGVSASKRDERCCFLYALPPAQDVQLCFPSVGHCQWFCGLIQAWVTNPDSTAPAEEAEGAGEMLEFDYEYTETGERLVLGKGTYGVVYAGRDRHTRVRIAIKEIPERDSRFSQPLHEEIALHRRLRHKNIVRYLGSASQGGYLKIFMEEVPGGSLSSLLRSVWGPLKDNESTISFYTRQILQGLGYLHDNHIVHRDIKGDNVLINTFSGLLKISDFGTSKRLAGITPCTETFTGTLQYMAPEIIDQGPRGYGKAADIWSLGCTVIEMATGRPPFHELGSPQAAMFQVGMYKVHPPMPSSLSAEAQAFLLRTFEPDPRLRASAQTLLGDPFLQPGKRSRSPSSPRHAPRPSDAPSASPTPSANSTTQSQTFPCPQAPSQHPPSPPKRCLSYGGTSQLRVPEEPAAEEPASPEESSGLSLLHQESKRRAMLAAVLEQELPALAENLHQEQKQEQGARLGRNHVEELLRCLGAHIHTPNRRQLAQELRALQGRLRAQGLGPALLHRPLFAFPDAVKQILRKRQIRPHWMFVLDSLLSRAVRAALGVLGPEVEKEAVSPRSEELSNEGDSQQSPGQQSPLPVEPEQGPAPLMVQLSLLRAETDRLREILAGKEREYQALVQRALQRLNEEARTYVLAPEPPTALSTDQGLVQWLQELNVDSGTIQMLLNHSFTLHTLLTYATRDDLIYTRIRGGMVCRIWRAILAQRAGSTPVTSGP

The target in assay [7] is PIK3R4 (Homo sapiens, UniProt Q99570).
Assay [8] has as its target PIM1 (Homo sapiens, UniProt P11309).
For assay [9], the target named is RPS6KA3 (Homo sapiens, UniProt P51812).
Assay [10] deals with MAPK6 (Homo sapiens, UniProt Q16659).

The structures appear in SMILES notation. Several values for one entry are separate records, joined by “and”; a condition that tells them apart may be missing. Equal values may be shown once.

RPS6KA3, sequence (P51812 whole entry): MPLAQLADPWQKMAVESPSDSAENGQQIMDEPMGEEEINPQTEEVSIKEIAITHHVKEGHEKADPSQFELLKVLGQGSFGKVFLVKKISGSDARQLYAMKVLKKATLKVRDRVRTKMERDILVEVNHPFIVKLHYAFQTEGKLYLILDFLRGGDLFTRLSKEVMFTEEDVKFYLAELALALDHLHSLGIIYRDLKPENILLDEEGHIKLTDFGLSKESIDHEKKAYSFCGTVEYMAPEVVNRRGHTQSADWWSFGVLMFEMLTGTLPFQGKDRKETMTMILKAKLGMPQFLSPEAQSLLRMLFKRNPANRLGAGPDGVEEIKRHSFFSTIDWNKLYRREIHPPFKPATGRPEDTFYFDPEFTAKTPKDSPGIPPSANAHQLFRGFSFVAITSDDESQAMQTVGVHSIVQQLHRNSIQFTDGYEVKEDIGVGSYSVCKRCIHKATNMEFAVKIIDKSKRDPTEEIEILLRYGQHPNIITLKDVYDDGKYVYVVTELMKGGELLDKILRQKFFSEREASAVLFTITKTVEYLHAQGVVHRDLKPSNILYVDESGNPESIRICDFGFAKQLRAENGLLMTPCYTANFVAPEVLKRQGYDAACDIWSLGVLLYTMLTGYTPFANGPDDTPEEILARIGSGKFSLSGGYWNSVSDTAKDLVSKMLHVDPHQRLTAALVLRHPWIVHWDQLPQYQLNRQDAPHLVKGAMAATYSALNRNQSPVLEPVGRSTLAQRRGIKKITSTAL
CAMK2G, sequence (Q13555 whole entry): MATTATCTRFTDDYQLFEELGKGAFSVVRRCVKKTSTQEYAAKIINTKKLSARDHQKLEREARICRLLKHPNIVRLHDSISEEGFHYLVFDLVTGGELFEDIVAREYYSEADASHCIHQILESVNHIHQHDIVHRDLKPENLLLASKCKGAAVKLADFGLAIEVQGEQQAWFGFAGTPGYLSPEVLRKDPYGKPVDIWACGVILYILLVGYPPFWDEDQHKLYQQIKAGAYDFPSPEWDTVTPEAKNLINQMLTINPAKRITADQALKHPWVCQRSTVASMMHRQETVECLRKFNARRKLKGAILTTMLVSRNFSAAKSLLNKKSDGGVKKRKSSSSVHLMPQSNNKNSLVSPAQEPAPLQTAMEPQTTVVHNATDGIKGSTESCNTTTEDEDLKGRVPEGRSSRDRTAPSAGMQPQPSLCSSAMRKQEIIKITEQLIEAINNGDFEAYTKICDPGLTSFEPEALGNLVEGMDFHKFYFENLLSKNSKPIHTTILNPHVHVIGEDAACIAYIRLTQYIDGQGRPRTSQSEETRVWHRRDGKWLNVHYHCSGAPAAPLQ
PIM1, sequence (P11309 whole entry): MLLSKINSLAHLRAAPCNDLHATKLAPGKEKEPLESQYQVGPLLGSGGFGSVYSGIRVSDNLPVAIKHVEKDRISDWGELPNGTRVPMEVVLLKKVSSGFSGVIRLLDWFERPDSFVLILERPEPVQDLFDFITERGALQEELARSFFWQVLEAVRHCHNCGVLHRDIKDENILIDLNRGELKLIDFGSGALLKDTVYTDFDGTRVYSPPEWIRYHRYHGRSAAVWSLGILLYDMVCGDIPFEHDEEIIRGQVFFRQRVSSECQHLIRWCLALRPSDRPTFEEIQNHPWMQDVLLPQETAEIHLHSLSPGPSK
BTK, sequence (Q06187 whole entry): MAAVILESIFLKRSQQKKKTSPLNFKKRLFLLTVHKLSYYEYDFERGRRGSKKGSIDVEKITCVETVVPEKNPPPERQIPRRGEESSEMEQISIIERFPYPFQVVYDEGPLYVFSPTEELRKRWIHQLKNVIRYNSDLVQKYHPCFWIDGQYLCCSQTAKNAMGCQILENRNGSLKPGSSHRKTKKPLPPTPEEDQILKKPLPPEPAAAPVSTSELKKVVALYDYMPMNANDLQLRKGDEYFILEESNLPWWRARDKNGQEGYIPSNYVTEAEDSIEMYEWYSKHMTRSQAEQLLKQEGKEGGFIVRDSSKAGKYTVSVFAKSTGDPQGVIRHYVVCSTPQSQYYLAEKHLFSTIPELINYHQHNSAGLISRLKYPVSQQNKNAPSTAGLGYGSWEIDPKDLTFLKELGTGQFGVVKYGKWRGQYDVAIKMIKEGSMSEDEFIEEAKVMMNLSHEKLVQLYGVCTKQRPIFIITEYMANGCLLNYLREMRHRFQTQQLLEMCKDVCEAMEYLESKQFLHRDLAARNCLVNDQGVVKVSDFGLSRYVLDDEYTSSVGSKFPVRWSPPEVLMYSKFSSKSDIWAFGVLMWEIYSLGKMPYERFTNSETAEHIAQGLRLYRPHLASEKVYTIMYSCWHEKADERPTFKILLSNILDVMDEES
BMP2K, sequence (Q9NSY1 whole entry): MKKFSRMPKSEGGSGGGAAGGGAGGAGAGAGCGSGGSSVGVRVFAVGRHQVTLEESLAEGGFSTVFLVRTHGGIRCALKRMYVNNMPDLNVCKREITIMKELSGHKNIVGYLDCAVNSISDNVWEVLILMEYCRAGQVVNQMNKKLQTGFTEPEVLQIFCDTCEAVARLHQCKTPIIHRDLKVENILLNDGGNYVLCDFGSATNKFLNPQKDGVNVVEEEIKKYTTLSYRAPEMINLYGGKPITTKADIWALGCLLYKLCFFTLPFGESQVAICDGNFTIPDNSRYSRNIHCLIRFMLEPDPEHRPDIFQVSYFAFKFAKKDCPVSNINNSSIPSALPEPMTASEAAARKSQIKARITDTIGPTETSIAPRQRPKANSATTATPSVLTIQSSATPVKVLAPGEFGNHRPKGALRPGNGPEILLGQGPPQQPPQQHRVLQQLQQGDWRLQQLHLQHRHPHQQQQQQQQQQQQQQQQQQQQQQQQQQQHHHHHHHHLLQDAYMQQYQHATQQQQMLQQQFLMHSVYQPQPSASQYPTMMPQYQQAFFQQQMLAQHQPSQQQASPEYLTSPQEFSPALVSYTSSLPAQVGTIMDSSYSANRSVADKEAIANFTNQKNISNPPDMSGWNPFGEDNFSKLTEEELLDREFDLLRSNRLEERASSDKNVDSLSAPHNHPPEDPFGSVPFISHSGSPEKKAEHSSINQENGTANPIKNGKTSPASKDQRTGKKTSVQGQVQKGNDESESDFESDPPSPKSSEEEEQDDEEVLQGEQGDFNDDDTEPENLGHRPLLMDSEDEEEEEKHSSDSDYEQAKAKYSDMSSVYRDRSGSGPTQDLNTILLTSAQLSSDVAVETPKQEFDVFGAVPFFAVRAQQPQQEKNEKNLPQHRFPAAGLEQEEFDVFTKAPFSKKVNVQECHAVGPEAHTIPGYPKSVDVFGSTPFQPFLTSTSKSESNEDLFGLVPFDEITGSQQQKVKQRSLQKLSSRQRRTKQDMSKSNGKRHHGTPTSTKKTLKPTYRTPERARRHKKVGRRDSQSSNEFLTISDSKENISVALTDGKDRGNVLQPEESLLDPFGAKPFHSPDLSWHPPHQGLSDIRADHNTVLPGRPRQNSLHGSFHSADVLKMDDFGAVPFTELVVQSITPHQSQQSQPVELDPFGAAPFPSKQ
CDK6, sequence (Q00534 whole entry): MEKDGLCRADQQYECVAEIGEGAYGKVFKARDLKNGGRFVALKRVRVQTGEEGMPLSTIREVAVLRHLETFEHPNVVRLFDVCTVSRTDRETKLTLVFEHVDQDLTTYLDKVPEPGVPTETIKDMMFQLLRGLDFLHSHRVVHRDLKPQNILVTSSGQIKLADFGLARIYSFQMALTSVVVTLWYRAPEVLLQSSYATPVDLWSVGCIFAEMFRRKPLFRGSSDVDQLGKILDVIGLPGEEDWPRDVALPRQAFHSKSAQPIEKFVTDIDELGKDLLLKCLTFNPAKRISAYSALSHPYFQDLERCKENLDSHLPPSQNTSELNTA
MAPK6, sequence (Q16659 whole entry): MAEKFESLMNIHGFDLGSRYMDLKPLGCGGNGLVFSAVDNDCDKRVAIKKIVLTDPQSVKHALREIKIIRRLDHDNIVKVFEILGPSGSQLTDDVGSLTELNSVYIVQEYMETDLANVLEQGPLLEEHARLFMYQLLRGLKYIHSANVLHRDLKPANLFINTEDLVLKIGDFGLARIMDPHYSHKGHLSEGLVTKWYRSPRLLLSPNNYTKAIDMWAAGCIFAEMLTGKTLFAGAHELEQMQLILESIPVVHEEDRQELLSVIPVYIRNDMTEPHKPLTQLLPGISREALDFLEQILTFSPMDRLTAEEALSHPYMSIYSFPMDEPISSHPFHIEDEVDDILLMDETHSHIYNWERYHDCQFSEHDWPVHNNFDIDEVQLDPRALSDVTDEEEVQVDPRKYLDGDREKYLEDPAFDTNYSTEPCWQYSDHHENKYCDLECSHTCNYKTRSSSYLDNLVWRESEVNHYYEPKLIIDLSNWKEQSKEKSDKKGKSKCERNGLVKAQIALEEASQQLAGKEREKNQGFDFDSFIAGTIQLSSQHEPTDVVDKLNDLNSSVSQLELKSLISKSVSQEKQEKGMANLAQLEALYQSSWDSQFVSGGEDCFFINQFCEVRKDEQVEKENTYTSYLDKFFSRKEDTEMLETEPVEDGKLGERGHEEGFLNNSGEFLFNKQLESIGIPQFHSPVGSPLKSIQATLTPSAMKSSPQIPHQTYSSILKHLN

Consider `CN1CCN(c2ccc(Nc3ncc(C#N)c(Nc4ccccc4C(N)=O)n3)cc2)CC1.Cl` [TCMDC-134116], for which the Kd was 0.112 µM and 0.0928 µM in assay [1]; 0.207 µM and 0.231 µM in assay [2]; 0.34 µM and 0.294 µM in assay [3]; 0.133 µM and 0.15 µM in [4]; 0.681 µM in assay [5]; 0.994 µM and 0.87 µM in assay [6]. For the same compound, the Kd was 1.84 µM in [7]; 3.56 µM and 2.97 µM in [8]; 0.0608 µM and 0.082 µM in [9].
In the case of `CN(C)CC(O)COc1ccc(Nc2ncc([N+](=O)[O-])c(Nc3ccccc3O)n2)cc1.O=C(O)C(F)(F)F` (stereo not shown) [TCMDC-141399], the Kd in [10] was 0.248 µM.
